In the assay the test system is MC38 mouse colon cancer allograft tumor model. The assay is described as follows: In vivo efficacy in the MC38 mouse colon cancer allograft tumor model. As to conditions: 10 μg i.t.; for Tumor Volume, Day 0, Dosing side / Tumor Volume, Day 0, Non-dosing side: baseline at start of dosing; for Tumor Volume, Day 0, Dosing side / Tumor Volume, Day 0, Non-dosing side / Tumor Volume, Day 18, Dosing side / Tumor Volume, Day 18, Non-dosing side: mean ± SEM, n = 8; for Tumor Volume, Day 0, Dosing side / Tumor Volume, Day 0, Non-dosing side / Tumor Volume, Day 18, Dosing side / TGIvolume, Day 18, Dosing side: BIW×2; for Tumor Volume, Day 18, Non-dosing side / TGIvolume, Day 18, Non-dosing side: BIW×2 on the other side; for TGIvolume, Day 18, Dosing side / TGIvolume, Day 18, Non-dosing side: tumor volume inhibitory rate. The method, then:
In this experimental example, the changes in tumor volume and tumor weight of an MC38 mouse colon cancer transplanted tumor model were measured and recorded after intratumoral injection (i.t.) of compound 6 or compound 8, so as to test the efficacy of each test compound.
Experimental cell strain: Mouse colon cancer MC38 cells (Nanjing Cobioer) were cultured in a 37° C., 5% CO2 incubator (medium: RPMI-1640 (Hyclone) containing 10% fetal bovine serum (Gibco)). Trypsin-EDTA (Hyclone) was used for routine digestion and passage. When the cells were in the exponential phase with a saturation of […], the cells were collected and counted.
Experimental animals: C57BL/6J mice, 6-8 weeks old, female, weighing 18-20 grams. All mice were purchased from Beijing Vital River Laboratory Animal Technology Co., Ltd., and kept in a special pathogen-free (SPF) animal room.
The MC38 cells were resuspended in phosphate buffered saline (PBS) at a density of 5×10^6 cells/mL. 0.1 mL of PBS (containing 5×10^5 MC38 cells) was inoculated subcutaneously at the position of scapula at the right and left back of each mouse. When the average volume of the tumors at the left and right sides reached about 100 mm^3, the mice were randomly grouped according to the volumes of the tumors at the left and right sides.
When the average volume of the subcutaneously transplanted tumors reached about 100 mm^3, the mice were randomly grouped according to the volume of the tumors at the left and right sides, with 8 in each group. Administration was performed on the tumors at the right side via intratumoral injection at an administration frequency of BIW×2 for 2 weeks in total, while no administration was performed on the tumors at the left side. After administration, the volumes of tumors at the left and right sides were measured twice a week, and the death of the animals was observed every day.
The anti-tumor efficacy of the test compound was evaluated by the tumor volume inhibitory rate TGIvolume (%). The tumor volume was measured with a vernier caliper. The tumor volume is calculated according to the formula: V=0.5×a×b^2, wherein “a” and “b” represent the long diameter and short diameter of the tumor, respectively. The tumor volume inhibitory rate TGIvolume (%)=[(1−(the average tumor volume at the end of dosing to a dosing group−the average tumor volume at the start of dosing to the dosing group)/(the average tumor volume at the end of dosing to a vehicle control group−the average tumor volume at the start of dosing to the vehicle control group)]×100%. When the tumor volume at the end of dosing was smaller than the tumor volume at the start of dosing (i.e., tumor regression), TGIvolume (%)=[1−(the average tumor volume at the end of dosing to a dosing group−average the tumor volume at the start of dosing to the dosing group)/the average tumor volume at the start of dosing to the dosing group]×100%.
A statistical analysis was performed based on the tumor volume at the end of the experiment using the Graphpad Prism software. A comparison between the two groups was analyzed by Student's t-test. When P<0.05, it was considered as having a significant difference.

`COc1cc2sc(C(=O)CCC(=O)O)cc2cc1OCCCOc1cc2cc(C(=O)N(C)CCC(=O)O)sc2cc1OC` [Compound 8, 4-(5-(3-((2-((2-carboxyethyl)(methyl)carbamoyl)-6-methoxybenzo[b]thiophen-5-yl)oxy)propoxy)-6-methoxybenzo[b]thiophen-2-yl)-4-oxobutanoic Acid]: the “Tumor Volume, Day 0, Dosing side” value is reported as 113.24 ± 12.33 mm^3; the “Tumor Volume, Day 0, Non-dosing side” value was 96.60 ± 11.50 mm^3; the “Tumor Volume, Day 18, Dosing side” value amounted to 0.00 ± 0.00 mm^3; the “Tumor Volume, Day 18, Non-dosing side” value was 666.08 ± 100.92 mm^3. Also, the “TGIvolume, Day 18, Dosing side” value is 200.00% and the “TGIvolume, Day 18, Non-dosing side” value was found to be 58.09%.

With `COc1cc2sc(C(=O)CCC(=O)O)cc2cc1OCCCOc1cc2sc(C(=O)N(C)CCC(=O)O)cc2cc1OC` [Compound 6, 4-(5-(3-((2-((2-carboxyethyl)(methyl)carbamoyl)-5-methoxybenzo[b]thiophen-6-yl)oxy)propoxy)-6-methoxybenzo[b]thiophen-2-yl)-4-oxobutanoic acid], the “Tumor Volume, Day 0, Dosing side” value was determined as 112.09 ± 11.95 mm^3; the “Tumor Volume, Day 0, Non-dosing side” value was determined as 96.07 ± 10.17 mm^3; the “Tumor Volume, Day 18, Dosing side” value is listed as 105.10 ± 74.74 mm^3; the “Tumor Volume, Day 18, Non-dosing side” value was determined as 760.69 ± 174.22 mm^3. The “TGIvolume, Day 18, Dosing side” value is 106.24% and the “TGIvolume, Day 18, Non-dosing side” value turned out to be 51.09%.

(Values after patent publication US12269816B2, “Benzothiophene compound, preparation method therefor and use thereof” (SICHUAN KELUN-BIOTECH BIOPHARMACEUTICAL CO., LTD., priority 2019, dated 2025).)
